According to US20250325677A1, “STAT6 DEGRADERS” (Gilead Sciences, Inc., priority 2024, published 2025):

Target: STAT6 (Homo sapiens (Human), UniProt P42226)
Test: STAT6 degrader assay (HiBiT, HeLa LgBiT clone 4.14)
Format: cell-based
Conditions: HeLa LgBiT clone 4.14, 4-24 h; for DC50: geometric mean, given for compounds with >80% Emax, read-out: STAT6 degradation DC50
Description: This was a HiBit based assay. A HeLa cell line stably transfected with a small protein, LgBit (Large Bit) was obtained from Promega. These cells express endogenous STAT6. A small 11 amino acid gene sequence (HiBiT) was inserted in the STAT6 gene using CRISPR technology. Once STAT6 protein is expressed in the cells, the HiBiT sequence will bind the LgBit in the cells resulting in a functional NanoBiT protein, giving a luminescent tag to STAT6, see FIG. 2.
Single cell clones were prepared and the clone 4.14 was selected for the assay based on that clone showing high luminescence, high STAT6 phosphorylation upon stimulation with IL-4, and inhibition of luminescence when cells were treated with STAT6 siRNA.
HeLa LgBiT clone 4.14 cells were suspended in DMEM with 10% FCS, 1% Pen/Strep, Na-pyrovate and Hygromycin B, at a concentration of 1.25*105 cells pr mL. 5000 cells were added pr well of a 384 well plate and 20 nL of compound was added by Echo® liquid handler. NN6394A (terfenadine, a toxic compound) was added to control wells at 50 μM concentration to establish the assay window. In these wells the cells are dead which equals 100% degradation of STAT6.
After 4-24 h of incubation at 37° C. under 5% CO2/95% air, 5 μL substrate (Nano-GLO®) was added to the wells and the plates were centrifuged and incubated for 0.5 h.
The luminescence in the wells as a measure of non-degraded STAT6 was measured in a plate reader (BMG Pherastar FSX). The measured DC50 (in nM) was determined.
The dose-response curves Examples 3p1, 3e50, 3e17, and 3e51 are shown below (where percent degradation is plotted vs. test compound concentration in M on a log-scale).

STAT6, sequence (P42226 whole entry): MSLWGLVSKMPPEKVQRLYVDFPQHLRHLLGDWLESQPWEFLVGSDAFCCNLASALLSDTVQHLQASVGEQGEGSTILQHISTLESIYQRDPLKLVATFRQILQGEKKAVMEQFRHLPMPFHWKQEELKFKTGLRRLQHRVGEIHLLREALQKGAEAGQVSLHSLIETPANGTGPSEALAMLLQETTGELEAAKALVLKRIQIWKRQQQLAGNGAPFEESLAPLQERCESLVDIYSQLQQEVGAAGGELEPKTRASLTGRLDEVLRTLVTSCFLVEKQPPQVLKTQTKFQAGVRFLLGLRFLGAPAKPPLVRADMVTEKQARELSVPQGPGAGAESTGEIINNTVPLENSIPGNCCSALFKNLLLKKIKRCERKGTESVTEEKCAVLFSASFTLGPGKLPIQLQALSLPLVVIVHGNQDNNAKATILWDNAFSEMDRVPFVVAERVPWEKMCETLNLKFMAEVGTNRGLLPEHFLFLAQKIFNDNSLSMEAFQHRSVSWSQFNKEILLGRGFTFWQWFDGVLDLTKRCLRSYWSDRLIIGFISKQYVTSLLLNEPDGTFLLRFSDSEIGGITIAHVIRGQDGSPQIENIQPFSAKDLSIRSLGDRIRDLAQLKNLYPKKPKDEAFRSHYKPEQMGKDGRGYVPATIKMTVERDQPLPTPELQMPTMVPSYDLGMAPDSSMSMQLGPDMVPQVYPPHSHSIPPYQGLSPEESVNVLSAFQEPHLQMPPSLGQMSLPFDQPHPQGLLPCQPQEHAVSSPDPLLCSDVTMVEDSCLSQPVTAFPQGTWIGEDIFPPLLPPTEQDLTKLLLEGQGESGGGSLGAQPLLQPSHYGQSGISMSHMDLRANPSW

Compound	DC50 [nM]	Emax (read-out: STAT6 degradation Emax (%)) [%]
COCc1nc2cc(-c3ccnc4c3cc([C@H](C)N3CCC(c5ccc(C(=O)N6CCC(CN7CCN(Cc8ccc9c(c8)n(C)c(=O)n9C8CCC(=O)NC8=O)C[C@@H]7C)CC6)cc5)CC3)n4C)ccc2[nH]1 (stereo partly drawn) [Example 3e22, 3-(5-(((S)-4-((1-(4-(1-((S)-1-(4-(2-(methoxymethyl)-1H-benzo[d]imidazol-5-yl)-1-methyl-1H-pyrrolo[2,3-b]pyridin-2-yl)ethyl)piperidin-4-yl)benzoyl)piperidin-4-yl)methyl)-3-methylpiperazin-1-yl)methyl)-3-methyl-2-oxo-2,3-dihydro-1H-benzo[d]imidazol-1-yl)piperidine-2,6-dione]	0.3	–
C[C@@H](c1cc2c(-c3ccc(N)nc3)ccnc2n1C)N1CCC(c2ccc(C(=O)N3CCC(CN4CCN(Cc5ccc6c(c5)n(CC(F)(F)F)c(=O)n6C5CCC(=O)NC5=O)CC4)CC3)cc2)CC1 (stereo partly drawn) [Example 3e25, 3-(5-((4-((1-(4-(1-((S)-1-(4-(6-aminopyridin-3-yl)-1-methyl-1H-pyrrolo[2,3-b]pyridin-2-yl)ethyl)piperidin-4-yl)benzoyl)piperidin-4-yl)methyl)piperazin-1-yl)methyl)-2-oxo-3-(2,2,2-trifluoroethyl)-2,3-dihydro-1H-benzo[d]imidazol-1-yl)piperidine-2,6-dione]	4	–
[2H]C([2H])([2H])n1c(=O)n(C2CCC(=O)NC2=O)c2ccc(CN3CCN(CC4CCN(C(=O)c5ccc(C6CCN([C@@H](C)c7cc8c(-c9ccc(N)nc9)ccnc8n7C)CC6)cc5)CC4)CC3)cc21 (stereo partly drawn) [Example 3e26, 3-(5-((4-((1-(4-(1-((S)-1-(4-(6-aminopyridin-3-yl)-1-methyl-1H-pyrrolo[2,3-b]pyridin-2-yl)ethyl)piperidin-4-yl)benzoyl)piperidin-4-yl)methyl)piperazin-1-yl)methyl)-3-(methyl-d3)-2-oxo-2,3-dihydro-1H-benzo[d]imidazol-1-yl)piperidine-2,6-dione]	1.1	–
COCc1nc2cc(-c3ccnc4c3cc([C@H](C)N3CCC(c5ccc(C(=O)N6CCC(CN7CCN(Cc8ccc9c(c8)n(C)c(=O)n9C8CCC(=O)NC8=O)CC7)CC6)cc5)CC3)n4C)ccc2[nH]1 (stereo partly drawn) [Example 3e66, 3-(5-((4-((1-(4-(1-((S)-1-(4-(2-(methoxymethyl)-1H-benzo[d]imidazol-5-yl)-1-methyl-1H-pyrrolo[2,3-b]pyridin-2-yl)ethyl)piperidin-4-yl)benzoyl)piperidin-4-yl)methyl)piperazin-1-yl)methyl)-3-methyl-2-oxo-2,3-dihydro-1H-benzo[d]imidazol-1-yl)piperidine-2,6-dione]	0.5	–
Cn1c(CN2CCC(c3ccc(C(=O)N4CCN(CC5CCN(Cc6ccc7c(c6)n(C)c(=O)n7C6CCC(=O)NC6=O)CC5)CC4)cc3)CC2)cc2c(-c3ccc4[nH]ncc4c3)ccnc21 (stereo not drawn) [Example 3f1, 3-(5-((4-((4-(4-(1-((4-(1H-indazol-5-yl)-1-methyl-1H-pyrrolo[2,3-b]pyridin-2-yl)methyl)-piperidin-4-yl)benzoyl)piperazin-1-yl)methyl)piperidin-1-yl)methyl)-3-methyl-2-oxo-2,3-dihydro-1H-benzo[d]imidazol-1-yl)piperidine-2,6-dione]	–	40 to 50
Cn1c(CN2CCC(c3ccc(C(=O)N4CCC(CC5CCN(Cc6ccc7c(c6)n(C)c(=O)n7C6CCC(=O)NC6=O)CC5)CC4)cc3)CC2)cc2c(-c3ccc4[nH]ncc4c3)ccnc21 (stereo not drawn) [Example 3h1, 3-(5-((4-((1-(4-(1-((4-(1H-indazol-5-yl)-1-methyl-1H-pyrrolo[2,3-b]pyridin-2-yl)methyl)-piperidin-4-yl)benzoyl)piperidin-4-yl)methyl)piperidin-1-yl)methyl)-3-methyl-2-oxo-2,3-dihydro-1H-benzo[d]imidazol-1-yl)piperidine-2,6-dione]	2.4	–
